Measurements taken from PubChem BioAssay AID212 (DTP/NCI, 2004).
Several values for one entry are separate records, joined by “and”; a condition that tells them apart may be missing. Identical values can stand only once. Inconclusive results are not listed.

Tested on: BDF1 mice, colon carcinoma 38 sc, T/C %
Experiment: NCI In Vivo Anticancer Drug Screen. Data for tumor model Colon Carcinoma 38 (subcutaneous) in B6D2F1 (BDF1) mice
Procedure, shortened: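 Mice with transplanted tumors are treated with compound or vehicle. Survival or tumor size is then measured in both groups. The ratio of treated to control gives the reported figure.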

[1] = endpoint: median tumor weight (est.), dose: 100.0 mg/kg/injection, schedule: Q07DX002 (ip), vehicle: saline with Tween-80, higher = larger tumour
[2] = endpoint: median tumor weight (est.), dose: 25.0 mg/kg/injection, schedule: Q07DX002 (ip), vehicle: saline, higher = larger tumour
[3] = endpoint: median tumor weight (est.), dose: 50.0 mg/kg/injection, schedule: Q07DX002 (ip), vehicle: saline, higher = larger tumour
[4] = endpoint: median tumor weight (est.), dose: 100.0 mg/kg/injection, schedule: Q07DX002 (ip), vehicle: saline, higher = larger tumour
[5] = endpoint: median tumor weight (est.), dose: 100.0 mg/kg/injection, schedule: Q07DX002 (ip), vehicle: suspension in saline, higher = larger tumour
[6] = endpoint: median tumor weight (est.), dose: 200.0 mg/kg/injection, schedule: Q07DX002 (ip), vehicle: saline, higher = larger tumour
[7] = endpoint: median tumor weight (est.), dose: 400.0 mg/kg/injection, schedule: Q07DX002 (ip), vehicle: saline, higher = larger tumour
[8] = endpoint: median tumor weight (est.), dose: 800.0 mg/kg/injection, schedule: Q07DX002 (ip), vehicle: saline, higher = larger tumour
[9] = endpoint: median tumor weight (est.), dose: 800.0 mg/kg/injection, schedule: Q07DX002 (ip), vehicle: suspension in saline, higher = larger tumour

What does the source list for BrC[P+](CBr)(CBr)CBr?
T/C (endpoint: median tumor weight (est.), dose: 3.12 mg/kg/injection, schedule: Q07DX002 (ip), vehicle: saline with Tween-80, higher = larger tumour): 48 % of control; T/C (endpoint: median tumor weight (est.), dose: 6.25 mg/kg/injection, schedule: Q07DX002 (ip), vehicle: saline with Tween-80, higher = larger tumour): 73 % of control; T/C (endpoint: median tumor weight (est.), dose: 50.0 mg/kg/injection, schedule: Q07DX002 (ip), vehicle: saline with Tween-80, higher = larger tumour): 82 % of control; T/C [1]: 75 % of control and 77 % of control

With CC(=O)C1(O)Cc2c(O)c3c(c(O)c2C(OC2CC(N)C(O)C(C)O2)C1)C(=O)c1ccccc1C3=O (configuration not stated) as the compound, how does the T/C (endpoint: median survival time, dose: 1.4 mg/kg/injection, schedule: Q07DX002 (iv), vehicle: saline, higher = longer survival) read?
The T/C was 118 % of control.

And the T/C (endpoint: median tumor weight (est.), dose: 0.37 mg/kg/injection, schedule: Q07DX002 (ip), vehicle: saline, higher = larger tumour)?
The T/C was 66 % of control.

What about the T/C (endpoint: median tumor weight (est.), dose: 0.75 mg/kg/injection, schedule: Q07DX002 (ip), vehicle: saline, higher = larger tumour) of the same compound?
The T/C was 67 % of control.

Which results are given for COc1c(O)c2c(c3cc(C(=O)N4CCc5c4c(O)c(OC)c4[nH]c(C(=O)N6CC7CC78C6=CC(=O)c6[nH]cc(C)c68)cc54)[nH]c13)CCN2C(N)=O (configuration not stated)?
T/C (endpoint: median tumor weight (est.), dose: 6.25 micrograms/kg/injection, schedule: Q07DX002 (ip), vehicle: DMSO, higher = larger tumour): 122 % of control; T/C (endpoint: median tumor weight (est.), dose: 25.0 micrograms/kg/injection, schedule: Q07DX002 (ip), vehicle: DMSO, higher = larger tumour): 109 % of control; T/C (endpoint: median tumor weight (est.), dose: 50.0 micrograms/kg/injection, schedule: Q07DX002 (ip), vehicle: DMSO, higher = larger tumour): 89 % of control; T/C (endpoint: median tumor weight (est.), dose: 67.0 micrograms/kg/injection, schedule: Q07DX002 (ip), vehicle: other, higher = larger tumour): 89 % of control; T/C (endpoint: median tumor weight (est.), dose: 100.0 micrograms/kg/injection, schedule: Q07DX002 (ip), vehicle: other, higher = larger tumour): 37 % of control

What does the source list for NC(=S)N/N=C/c1ccc(O)cn1?
T/C [2]: 123 % of control; T/C (endpoint: median tumor weight (est.), dose: 25.0 mg/kg/injection, schedule: Q07DX002 (ip), vehicle: suspension in saline, higher = larger tumour): 83 % of control; T/C [3]: 67 % of control; T/C (endpoint: median tumor weight (est.), dose: 50.0 mg/kg/injection, schedule: Q07DX002 (ip), vehicle: suspension in saline, higher = larger tumour): 72 % of control; T/C [4]: 67 % of control; T/C [5]: 108 % of control; T/C [6]: 72 % of control; T/C [7]: 71 % of control; T/C (endpoint: median tumor weight (est.), dose: 400.0 mg/kg/injection, schedule: Q07DX002 (ip), vehicle: suspension in saline, higher = larger tumour): 105 % of control; T/C [8]: 67 % of control; T/C [9]: 110 % of control

Cc1cc2nc3c(=O)[nH]c(=O)nc-3n(CC(O)C(O)C(O)C(O)CO)c2cc1C (configuration not stated) was tested. Which T/C [3] did it give?
The T/C was 100 % of control.

And the T/C [4]?
Its T/C is 124 % of control.

What about the T/C [5] of the same compound?
Its T/C is 77 % of control.

And the T/C [6]?
The T/C was 108 % of control.

And the T/C [7]?
The T/C was 100 % of control.

What about the T/C [8] of the same compound?
The T/C was 78 % of control.

And the T/C [9]?
Its T/C is 58 % of control and 69 % of control.

And the T/C (endpoint: median tumor weight (est.), dose: 1600.0 mg/kg/injection, schedule: Q07DX002 (ip), vehicle: saline, higher = larger tumour)?
Its T/C is 72 % of control.

With O=C(O)C1(NO)CCCCC1 as the compound, how does the T/C (endpoint: median tumor weight (est.), dose: 25.0 mg/kg/injection, schedule: Q07DX002 (ip), vehicle: Klucel (hydroxypropylcellulose) (HPC), higher = larger tumour) read?
Its T/C is 56 % of control.

And the T/C (endpoint: median tumor weight (est.), dose: 50.0 mg/kg/injection, schedule: Q07DX002 (ip), vehicle: Klucel (hydroxypropylcellulose) (HPC), higher = larger tumour)?
Its T/C is 86 % of control and 105 % of control.

And the T/C (endpoint: median tumor weight (est.), dose: 400.0 mg/kg/injection, schedule: Q07DX002 (ip), vehicle: Klucel (hydroxypropylcellulose) (HPC), higher = larger tumour)?
Its T/C is 118 % of control and 94 % of control.

And the T/C (endpoint: median tumor weight (est.), dose: 800.0 mg/kg/injection, schedule: Q07DX002 (ip), vehicle: Klucel (hydroxypropylcellulose) (HPC), higher = larger tumour)?
Its T/C is 112 % of control and 103 % of control.

For CCCN1COC(OCC)C(C)(C)C1 (configuration not stated), which T/C (endpoint: median tumor weight (est.), dose: 25.0 mg/kg/injection, schedule: Q07DX002 (ip), vehicle: saline with Tween-80, higher = larger tumour) is on record?
The T/C was 73 % of control.

And the T/C [1]?
The T/C was 68 % of control and 73 % of control.

What about the T/C (endpoint: median tumor weight (est.), dose: 200.0 mg/kg/injection, schedule: Q07DX002 (ip), vehicle: saline with Tween-80, higher = larger tumour) of the same compound?
Its T/C is 77 % of control.

Which T/C (endpoint: median tumor weight (est.), dose: 12.5 mg/kg/injection, schedule: Q07DX002 (ip), vehicle: saline, higher = larger tumour) does the source give for Nc1nc(=O)n(C2OC(CO)C(O)C2O)cc1F (configuration not stated) here?
The T/C was 124 % of control.

And the T/C [2]?
Its T/C is 211 % of control.

What about the T/C [3] of the same compound?
Its T/C is 118 % of control and 235 % of control.

And the T/C [6]?
The T/C was 60 % of control and 83 % of control.

What does the source list for CCc1nc(N)nc(N)c1-c1ccc(Cl)c(N=[N+]=[N-])c1?
T/C (endpoint: median tumor weight (est.), dose: 25.0 mg/kg/injection, schedule: Q07DX002 (ip), vehicle: distilled water + Tween-80, higher = larger tumour): 82 % of control; T/C (endpoint: median tumor weight (est.), dose: 50.0 mg/kg/injection, schedule: Q07DX002 (ip), vehicle: distilled water + Tween-80, higher = larger tumour): 98 % of control; T/C (endpoint: median tumor weight (est.), dose: 100.0 mg/kg/injection, schedule: Q07DX002 (ip), vehicle: distilled water + Tween-80, higher = larger tumour): 97 % of control; T/C (endpoint: median tumor weight (est.), dose: 200.0 mg/kg/injection, schedule: Q07DX002 (ip), vehicle: distilled water + Tween-80, higher = larger tumour): 88 % of control; T/C (endpoint: median tumor weight (est.), dose: 400.0 mg/kg/injection, schedule: Q07DX002 (ip), vehicle: distilled water + Tween-80, higher = larger tumour): 106 % of control
